# Legend:
# Assay in all cases: relative viability (nuclei count vs DMSO), 5 days (fraction); higher = more cells survive
# [1] = compound: Nc1ccccc1NC(=O)c1ccc(CNC(=O)OCc2cccnc2)cc1 [Entinostat] + COc1cccc2cc(-c3nc([C@H]4CC[C@H](C(=O)O)CC4)n4ncnc(N)c34)[nH]c12 [OSI-027] (partner 0.5 µM)
# Procedure, shortened: (§1)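 One day after seeding in 1536-well plates, lung cancer cell lines were dosed by pin tool. Dosing was either single-drug or a fixed anchor-drug dose plus five library-drug doses (not always all listed) in √10 steps. After 5 days, nuclei were stained in one fix-and-stain step and counted on 4× images, and relative viability is the nuclei count of treated wells over that of vehicle wells, given as the median of duplicate plates.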
# [2] = compound: CN1CCC(CNc2ccc3ncc(-c4cccc(OC(F)(F)F)c4)n3n2)CC1 [SGI-1776] + COc1cc2c(Oc3ccc(NC(=O)C4(C(=O)Nc5ccc(F)cc5)CC4)cc3F)ccnc2cc1OCCCN1CCOCC1 [Foretinib] (partner 0.25 µM)
# Procedure, shortened: as §1
# [3] = compound: C1COCCN1C2=NC(=NC3=C2OC4=C3C=CC=N4)C5=CC(=CC=C5)NC(=O)C6=CN=C(C=C6)N + Nc1nc2[nH]cc(CCc3ccc(C(=O)N[C@@H](CCC(=O)O)C(=O)O)cc3)c2c(=O)[nH]1 [Pemetrexed] (partner 0.2 µM)
# Procedure, shortened: as §1
# [4] = compound: C1COCCN1C2=NC(=NC3=C2OC4=C3C=CC=N4)C5=CC(=CC=C5)NC(=O)C6=CN=C(C=C6)N + CCNC(=O)c1noc(-c2cc(C(C)C)c(O)cc2O)c1-c1ccc(CN2CCOCC2)cc1 [Luminespib] (partner 0.01 µM)
# Procedure, shortened: as §1
Cell Line,relative viability ([1]; first compound 0.02 µM),relative viability ([1]; first compound 0.06325 µM),relative viability ([1]; first compound 0.2 µM),relative viability ([1]; first compound 0.6325 µM),relative viability ([1]; first compound 2 µM),relative viability ([2]; first compound 0.08 µM),relative viability ([2]; first compound 0.8 µM),relative viability ([2]; first compound 2.53 µM),relative viability ([2]; first compound 8 µM),relative viability ([3]; first compound 0.02 µM),relative viability ([3]; first compound 0.06325 µM),relative viability ([3]; first compound 0.2 µM),relative viability ([3]; first compound 0.6325 µM),relative viability ([3]; first compound 2 µM),relative viability ([4]; first compound 0.02 µM),relative viability ([4]; first compound 0.06325 µM),relative viability ([4]; first compound 0.2 µM),relative viability ([4]; first compound 0.6325 µM),relative viability ([4]; first compound 2 µM)
NCI-H2170,0.745,0.65,0.742,0.607,0.373,0.959,1,1.02,0.987,0.263,0.274,0.259,0.258,0.247,0.579,0.893,0.723,0.606,0.584
HCC-366,0.922,0.972,0.854,0.214,0.0783,0.907,0.963,0.961,0.392,0.186,0.189,0.195,0.219,0.0985,–,–,–,–,–
NCI-H2405,0.574,0.652,0.582,0.567,0.414,1.07,1,0.998,0.934,1.04,1.11,1.03,0.968,0.989,0.647,0.644,0.639,0.536,0.473
COR-L 105,0.735,0.875,0.977,0.688,0.297,0.857,1.1,0.72,0.734,1.13,1.25,0.967,1.16,0.642,0.975,0.682,0.677,0.674,0.472
201T,0.92,0.726,0.619,0.548,0.45,1.13,1.09,1.03,1.02,0.285,0.301,0.307,0.38,0.34,1.13,1,1.05,0.985,0.827
NCI-H2228,0.695,0.595,0.416,0.266,0.208,0.889,0.613,0.803,0.446,0.348,0.345,0.299,0.26,0.144,0.143,0.194,0.209,0.115,0.111
LCLC-103H,0.473,0.555,0.504,0.393,0.279,0.88,0.705,0.748,0.637,0.466,0.435,0.444,0.465,0.419,0.99,1.04,0.89,1.1,0.461
NCI-H2087,0.666,0.509,0.376,0.27,0.213,1.1,1.17,0.843,0.376,0.653,0.611,0.61,0.619,0.258,0.146,0.16,0.137,0.204,0.142
NCI-H358,0.879,0.992,0.796,0.496,0.169,0.698,0.553,0.467,0.198,0.176,0.182,0.137,0.222,0.135,0.287,0.254,0.353,0.426,0.193
H3255,0.589,0.582,0.503,0.309,0.232,1.02,0.994,0.801,0.864,0.507,0.558,0.528,0.524,0.491,0.79,0.851,0.689,1.03,0.9
NCI-H23,0.711,0.774,0.648,0.463,0.287,0.969,0.932,0.781,0.333,0.836,0.721,0.529,0.493,0.344,0.185,0.203,0.191,0.208,0.212
CAL-12T,0.583,0.719,0.698,0.601,0.305,1.21,1.08,1.25,0.577,1.2,1.27,1.17,1.32,0.412,0.465,0.602,0.21,0.418,0.267
A-427,0.505,0.489,0.403,0.395,0.343,1.15,1.17,0.972,0.983,1,0.985,0.944,0.914,0.739,0.812,0.951,0.982,0.872,0.544
HARA,0.448,0.529,0.551,0.299,0.194,1.04,0.946,0.718,0.913,0.253,0.261,0.204,0.246,0.141,0.562,0.762,0.843,0.79,0.335
NCI-H1793,0.291,0.316,0.285,0.2,0.204,0.953,0.597,0.5,0.184,0.818,0.86,0.626,0.621,0.632,0.16,0.192,0.168,0.165,0.158
NCI-H1623,0.445,0.565,0.429,0.298,0.339,0.984,0.859,0.893,0.901,–,–,–,–,–,0.486,0.503,0.461,0.439,0.835
NCI-H2023,0.287,0.29,0.264,0.12,0.0886,0.96,0.857,0.675,0.328,0.278,0.222,0.196,0.166,0.134,0.793,0.38,0.477,0.507,0.245

# From the supplement of paper PMC10307832
